By AC50 is commonly meant the midpoint of the concentration-response curve, whichever way the signal moves.

Here are results for 30 compounds from ChEMBL document CHEMBL1201862, “PubChem BioAssay data set” (2004).

Assay [1] deals with T1, Corticotropin-releasing factor receptor 2/Corticotropin-releasing factor-binding protein (Homo sapiens, UniProt P24387+Q13324).
T1 sequence (Q13324 whole entry): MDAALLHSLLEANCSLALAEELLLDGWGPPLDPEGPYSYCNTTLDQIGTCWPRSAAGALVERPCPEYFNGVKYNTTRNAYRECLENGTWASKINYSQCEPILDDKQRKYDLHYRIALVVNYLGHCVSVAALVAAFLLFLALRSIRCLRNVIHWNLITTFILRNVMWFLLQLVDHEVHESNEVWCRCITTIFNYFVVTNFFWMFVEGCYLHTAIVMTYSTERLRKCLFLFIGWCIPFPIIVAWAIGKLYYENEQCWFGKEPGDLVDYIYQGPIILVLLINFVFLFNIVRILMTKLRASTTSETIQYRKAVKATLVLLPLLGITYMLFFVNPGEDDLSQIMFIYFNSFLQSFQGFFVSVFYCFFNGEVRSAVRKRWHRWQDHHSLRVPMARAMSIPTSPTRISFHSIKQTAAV
T1 sequence (P24387 whole entry): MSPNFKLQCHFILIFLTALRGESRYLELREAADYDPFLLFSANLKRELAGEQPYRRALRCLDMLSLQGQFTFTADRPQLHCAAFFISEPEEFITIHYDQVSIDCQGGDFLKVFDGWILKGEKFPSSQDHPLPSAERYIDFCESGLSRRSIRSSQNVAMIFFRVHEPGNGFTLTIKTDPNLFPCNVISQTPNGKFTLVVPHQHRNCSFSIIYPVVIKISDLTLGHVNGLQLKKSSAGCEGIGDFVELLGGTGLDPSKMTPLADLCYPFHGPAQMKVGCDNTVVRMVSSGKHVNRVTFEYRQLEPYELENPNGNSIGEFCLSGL
Put plainly: Dose Response confirmation of uHTS hits for small molecule antagonists of the CRF-binding protein and CRF-R2 receptor complex. The class given is functional. The settings on record: read-out: IC50_Mean.

Assay [2] addresses T1, Corticotropin-releasing factor receptor 2/Corticotropin-releasing factor-binding protein. Put plainly: activators of CRF receptor 2 with binding protein – uHTS hits, confirmation (AID 602473). Type of assay: functional. The settings on record: read-out: EC50_Mean.
Assay [3] addresses T2, High affinity choline transporter 1 (Homo sapiens, UniProt Q9GZV3).
T2 sequence (Q9GZV3 whole entry): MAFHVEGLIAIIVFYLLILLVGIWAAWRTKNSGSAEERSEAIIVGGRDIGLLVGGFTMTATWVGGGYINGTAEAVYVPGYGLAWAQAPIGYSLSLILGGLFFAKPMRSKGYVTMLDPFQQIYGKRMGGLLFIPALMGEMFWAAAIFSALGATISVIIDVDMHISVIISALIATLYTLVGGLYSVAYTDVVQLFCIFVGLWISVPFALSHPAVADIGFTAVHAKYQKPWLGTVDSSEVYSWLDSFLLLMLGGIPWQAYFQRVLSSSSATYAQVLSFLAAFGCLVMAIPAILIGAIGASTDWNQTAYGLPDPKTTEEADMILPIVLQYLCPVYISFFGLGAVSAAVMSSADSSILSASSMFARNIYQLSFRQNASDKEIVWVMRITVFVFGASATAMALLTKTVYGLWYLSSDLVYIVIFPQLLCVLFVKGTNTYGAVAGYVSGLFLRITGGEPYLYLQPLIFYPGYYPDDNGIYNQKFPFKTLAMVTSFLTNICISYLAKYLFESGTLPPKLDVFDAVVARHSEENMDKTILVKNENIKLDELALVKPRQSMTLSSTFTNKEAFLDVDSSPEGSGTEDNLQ
Put plainly: CHT inhibitors, dose response, cell-based, 5-point CRC, membrane potential dye (AID 504840). Type of assay: functional.

For assay [4], the system named is Streptococcus sp. 'group A'. Put plainly: growth inhibition of control SK(-) GAS strain, dose response, counter-screen for streptokinase expression inhibitor project, luminescence, kanamycin, BacTiterGlo, confirmation (AID 1900). Type of assay: functional, organism-based. (In general: Counterscreens check selectivity or assay interference.)
Assay [5] addresses T3, Streptokinase A (Streptococcus pyogenes serotype M1, UniProt P10520).
T3 sequence (P10520 whole entry): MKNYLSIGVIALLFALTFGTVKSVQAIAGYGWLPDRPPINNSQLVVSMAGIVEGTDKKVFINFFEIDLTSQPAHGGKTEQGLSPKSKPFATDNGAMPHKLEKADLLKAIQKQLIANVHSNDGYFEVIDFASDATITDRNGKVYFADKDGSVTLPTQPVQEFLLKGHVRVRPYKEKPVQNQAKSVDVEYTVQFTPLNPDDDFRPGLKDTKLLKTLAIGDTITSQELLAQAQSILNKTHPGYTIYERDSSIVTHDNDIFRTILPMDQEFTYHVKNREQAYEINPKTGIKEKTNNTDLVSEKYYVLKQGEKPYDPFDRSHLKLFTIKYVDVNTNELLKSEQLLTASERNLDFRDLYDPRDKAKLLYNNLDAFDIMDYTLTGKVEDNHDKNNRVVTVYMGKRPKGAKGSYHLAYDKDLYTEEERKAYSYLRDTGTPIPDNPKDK
Put plainly: S. pyogenes streptokinase expression inhibitors, potency, dose response, plasminogen activation absorbance, OD405 (AID 1914).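 Also: secreted streptokinase activity via plasminogen activation per viability signal from cell pellet.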 Type of assay: functional, Streptococcus pyogenes M1 GAS.

Assay [6] deals with Streptococcus. Put plainly: Group A Streptococcus viability loss, dose response, counter-screen for streptokinase expression inhibitor project, luminescence, BacTiterGlo (AID 1915).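 Also: potency for reduction of bacterial viability or growth.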 The class given is functional, organism-based.
Assay [7] deals with T4, Fatty acid synthase (Homo sapiens, UniProt P49327). The experiment in a line: FAS thioesterase domain inhibitors, dose response, biochemical, endpoint fluorescence intensity, uHTS hits (AID 624327).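 Also: fluorescence from hydrolysis of an O-methyl fluorescein acyl ester substrate by the enzyme.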 The class given is functional.
T4 sequence (P49327 whole entry, the tested form may be a part): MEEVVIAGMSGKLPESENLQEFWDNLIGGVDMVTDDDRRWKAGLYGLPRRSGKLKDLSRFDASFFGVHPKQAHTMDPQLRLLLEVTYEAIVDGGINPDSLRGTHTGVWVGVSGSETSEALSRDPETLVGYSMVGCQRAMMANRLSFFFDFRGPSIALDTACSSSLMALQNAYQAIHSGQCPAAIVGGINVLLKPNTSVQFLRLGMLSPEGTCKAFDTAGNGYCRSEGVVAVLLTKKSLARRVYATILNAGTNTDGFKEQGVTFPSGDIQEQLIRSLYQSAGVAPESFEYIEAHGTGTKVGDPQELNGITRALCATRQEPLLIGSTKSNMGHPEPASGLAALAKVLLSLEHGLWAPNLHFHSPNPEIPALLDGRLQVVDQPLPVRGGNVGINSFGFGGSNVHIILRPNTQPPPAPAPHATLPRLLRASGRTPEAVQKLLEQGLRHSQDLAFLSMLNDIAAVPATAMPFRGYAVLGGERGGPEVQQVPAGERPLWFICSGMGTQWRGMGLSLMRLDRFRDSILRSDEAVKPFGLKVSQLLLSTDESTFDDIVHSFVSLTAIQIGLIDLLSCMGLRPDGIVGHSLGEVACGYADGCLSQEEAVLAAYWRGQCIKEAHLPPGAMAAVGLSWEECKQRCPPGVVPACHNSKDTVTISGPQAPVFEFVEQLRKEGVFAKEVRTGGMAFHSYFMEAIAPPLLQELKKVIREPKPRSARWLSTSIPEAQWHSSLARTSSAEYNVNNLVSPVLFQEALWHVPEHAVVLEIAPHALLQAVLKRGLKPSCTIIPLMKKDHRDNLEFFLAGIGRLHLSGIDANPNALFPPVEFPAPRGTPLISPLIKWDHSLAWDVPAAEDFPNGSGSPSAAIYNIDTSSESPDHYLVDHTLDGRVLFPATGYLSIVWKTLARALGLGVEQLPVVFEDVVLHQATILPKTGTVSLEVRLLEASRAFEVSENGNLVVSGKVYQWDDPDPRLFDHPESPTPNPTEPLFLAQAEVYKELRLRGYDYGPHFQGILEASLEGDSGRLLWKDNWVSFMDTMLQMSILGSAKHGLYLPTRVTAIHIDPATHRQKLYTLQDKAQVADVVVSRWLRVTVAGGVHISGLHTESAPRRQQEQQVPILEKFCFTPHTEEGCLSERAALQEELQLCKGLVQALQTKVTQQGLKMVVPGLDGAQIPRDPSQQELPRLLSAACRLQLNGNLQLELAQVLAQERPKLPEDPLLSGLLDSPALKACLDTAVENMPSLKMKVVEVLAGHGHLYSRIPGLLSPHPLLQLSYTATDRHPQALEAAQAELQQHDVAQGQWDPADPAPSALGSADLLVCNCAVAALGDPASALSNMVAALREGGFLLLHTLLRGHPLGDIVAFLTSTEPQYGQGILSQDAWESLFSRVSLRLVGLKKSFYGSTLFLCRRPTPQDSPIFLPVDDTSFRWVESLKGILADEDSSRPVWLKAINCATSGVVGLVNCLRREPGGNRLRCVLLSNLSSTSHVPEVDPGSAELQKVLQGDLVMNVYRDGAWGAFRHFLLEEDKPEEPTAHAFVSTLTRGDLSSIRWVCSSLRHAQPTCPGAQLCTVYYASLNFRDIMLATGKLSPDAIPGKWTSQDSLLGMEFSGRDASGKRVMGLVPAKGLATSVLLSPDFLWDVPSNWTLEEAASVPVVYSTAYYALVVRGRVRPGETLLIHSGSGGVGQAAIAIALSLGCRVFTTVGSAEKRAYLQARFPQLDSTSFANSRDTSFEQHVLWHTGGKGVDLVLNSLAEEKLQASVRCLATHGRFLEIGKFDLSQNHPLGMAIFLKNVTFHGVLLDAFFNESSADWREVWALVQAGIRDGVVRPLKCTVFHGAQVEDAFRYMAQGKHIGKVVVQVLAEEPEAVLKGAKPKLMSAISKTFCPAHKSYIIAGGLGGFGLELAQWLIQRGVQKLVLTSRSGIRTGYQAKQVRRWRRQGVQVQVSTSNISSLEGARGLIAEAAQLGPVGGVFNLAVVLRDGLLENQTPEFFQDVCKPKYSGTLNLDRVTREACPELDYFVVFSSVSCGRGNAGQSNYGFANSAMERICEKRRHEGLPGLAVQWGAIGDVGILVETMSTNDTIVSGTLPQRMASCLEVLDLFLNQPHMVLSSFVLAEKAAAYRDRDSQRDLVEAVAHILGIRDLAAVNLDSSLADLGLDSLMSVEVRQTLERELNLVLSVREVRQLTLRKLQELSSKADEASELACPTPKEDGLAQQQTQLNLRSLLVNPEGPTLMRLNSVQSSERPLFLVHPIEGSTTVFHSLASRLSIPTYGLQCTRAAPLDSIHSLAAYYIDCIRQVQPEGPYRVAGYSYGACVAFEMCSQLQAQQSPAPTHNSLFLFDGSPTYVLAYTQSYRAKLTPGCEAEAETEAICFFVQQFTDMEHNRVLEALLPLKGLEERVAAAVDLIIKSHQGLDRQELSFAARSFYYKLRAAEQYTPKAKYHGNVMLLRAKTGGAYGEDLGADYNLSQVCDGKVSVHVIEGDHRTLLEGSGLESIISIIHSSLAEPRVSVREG
The target of assay [8] is T4, Fatty acid synthase. Put plainly: FAS thioesterase domain inhibitors, dose response, biochemical, kinetic fluorescence intensity (AID 624326).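 Also: rate of fluorescence rise from hydrolysis of a fluorogenic O-methyl fluorescein ester substrate.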 The class given is functional.
The target in assay [9] is Large T antigen (Simian virus 40, UniProt P03070). Type of assay: functional, Betapolyomavirus macacae.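 Also: Confirmatory-stage PubChem screen for compounds that inhibit SV40 T antigen.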
Sequence of Large T antigen (P03070 whole entry): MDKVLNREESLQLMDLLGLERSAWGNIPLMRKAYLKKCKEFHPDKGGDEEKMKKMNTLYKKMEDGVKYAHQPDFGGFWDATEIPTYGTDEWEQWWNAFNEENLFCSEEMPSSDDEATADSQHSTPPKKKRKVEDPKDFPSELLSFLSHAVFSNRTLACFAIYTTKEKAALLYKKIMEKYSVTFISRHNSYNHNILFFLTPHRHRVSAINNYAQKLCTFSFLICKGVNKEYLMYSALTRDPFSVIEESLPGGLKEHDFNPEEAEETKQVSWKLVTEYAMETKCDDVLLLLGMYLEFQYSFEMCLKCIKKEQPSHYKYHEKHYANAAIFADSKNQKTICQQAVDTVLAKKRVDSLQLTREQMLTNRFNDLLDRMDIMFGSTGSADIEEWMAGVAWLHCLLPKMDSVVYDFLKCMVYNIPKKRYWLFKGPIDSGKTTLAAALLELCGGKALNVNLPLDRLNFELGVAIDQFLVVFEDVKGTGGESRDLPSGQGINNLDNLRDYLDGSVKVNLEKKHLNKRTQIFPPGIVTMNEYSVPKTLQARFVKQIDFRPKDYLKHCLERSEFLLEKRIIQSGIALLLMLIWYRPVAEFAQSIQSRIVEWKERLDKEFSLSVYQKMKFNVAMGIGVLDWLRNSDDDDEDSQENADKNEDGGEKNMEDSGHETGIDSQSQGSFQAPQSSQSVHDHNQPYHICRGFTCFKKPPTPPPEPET
The nature of assay [10]: Luminescence Cell-Based Dose Confirmation HTS to Identify Activators of 5'UTR Stem-Loop Driven Alpha-Synuclein mRNA Translation in H4 Neuroglioblastoma Cells. [Related pubchem assays: 1829 (Project Summary), 1814 (Primary HTS)]. The class given is functional.
Assay [11] in a line: Luminescence Cell-Based Dose Response HTS to Identify Activators of Luciferase Translation or Activity in H4 […] Cells. [Related pubchem assays: 1829 (Project Summary), 1814 (Primary HTS)]. Type of assay: functional.
The test system of assay [12] is H4. Put plainly: Luminescence Cell-Based Dose Response HTS to Identify Activators of 5'UTR Stem-Loop Driven Prion Protein mRNA Translation in H4 Neuroglioblastoma Cells. [Related pubchem assays: 1829 (Project Summary), 1814 (Primary HTS)]. The class given is functional. The settings on record: Homo sapiens.
Assay [13] addresses T5, Cytochrome P450 1A2 (Homo sapiens, UniProt P05177).
T5 sequence (P05177 whole entry): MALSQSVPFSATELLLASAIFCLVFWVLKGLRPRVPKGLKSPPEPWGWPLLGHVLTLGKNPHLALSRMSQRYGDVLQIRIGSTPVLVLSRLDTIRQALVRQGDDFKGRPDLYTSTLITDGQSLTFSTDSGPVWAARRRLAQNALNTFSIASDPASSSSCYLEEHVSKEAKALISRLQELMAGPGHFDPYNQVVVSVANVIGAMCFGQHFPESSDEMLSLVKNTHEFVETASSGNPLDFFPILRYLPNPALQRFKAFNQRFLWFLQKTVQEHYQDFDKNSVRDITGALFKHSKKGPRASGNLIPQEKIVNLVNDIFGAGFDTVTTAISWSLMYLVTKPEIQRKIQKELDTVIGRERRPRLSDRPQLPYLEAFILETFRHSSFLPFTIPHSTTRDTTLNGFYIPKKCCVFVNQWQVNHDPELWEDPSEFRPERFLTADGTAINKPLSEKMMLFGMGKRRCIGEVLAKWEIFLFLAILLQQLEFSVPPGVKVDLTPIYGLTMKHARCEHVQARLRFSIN

Assay [14] deals with Cytochrome P450 3A4 (Homo sapiens, UniProt P08684).
Sequence of Cytochrome P450 3A4 (P08684 whole entry): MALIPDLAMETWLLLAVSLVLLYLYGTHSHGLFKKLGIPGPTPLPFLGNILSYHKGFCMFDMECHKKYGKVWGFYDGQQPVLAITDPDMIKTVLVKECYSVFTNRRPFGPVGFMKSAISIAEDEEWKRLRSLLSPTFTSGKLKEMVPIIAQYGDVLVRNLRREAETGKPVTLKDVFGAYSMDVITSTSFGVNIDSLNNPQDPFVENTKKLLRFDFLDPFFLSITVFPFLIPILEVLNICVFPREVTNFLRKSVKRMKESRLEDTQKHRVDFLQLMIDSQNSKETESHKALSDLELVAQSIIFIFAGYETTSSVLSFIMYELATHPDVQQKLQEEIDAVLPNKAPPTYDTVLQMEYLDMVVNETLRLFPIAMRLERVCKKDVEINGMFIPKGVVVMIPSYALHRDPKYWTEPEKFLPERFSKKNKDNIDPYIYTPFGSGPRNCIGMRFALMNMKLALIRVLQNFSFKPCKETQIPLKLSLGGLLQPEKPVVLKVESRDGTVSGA
The target in assay [15] is Paired box protein Pax-8 (Homo sapiens, UniProt Q06710). Put plainly: inhibitors of PAX8-driven TPO luciferase reporter, dose response, RMG-I cells, cherry-pick (AID 687027).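 Also: luciferase reporter driven by Pax8 target thyroperoxidase promoter measured by SteadyGlo luminescence.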 Type of assay: functional, cell-based. For orientation: Reporter assays use an easily measured gene product as a stand-in for the process of interest.
Sequence of Paired box protein Pax-8 (Q06710 whole entry): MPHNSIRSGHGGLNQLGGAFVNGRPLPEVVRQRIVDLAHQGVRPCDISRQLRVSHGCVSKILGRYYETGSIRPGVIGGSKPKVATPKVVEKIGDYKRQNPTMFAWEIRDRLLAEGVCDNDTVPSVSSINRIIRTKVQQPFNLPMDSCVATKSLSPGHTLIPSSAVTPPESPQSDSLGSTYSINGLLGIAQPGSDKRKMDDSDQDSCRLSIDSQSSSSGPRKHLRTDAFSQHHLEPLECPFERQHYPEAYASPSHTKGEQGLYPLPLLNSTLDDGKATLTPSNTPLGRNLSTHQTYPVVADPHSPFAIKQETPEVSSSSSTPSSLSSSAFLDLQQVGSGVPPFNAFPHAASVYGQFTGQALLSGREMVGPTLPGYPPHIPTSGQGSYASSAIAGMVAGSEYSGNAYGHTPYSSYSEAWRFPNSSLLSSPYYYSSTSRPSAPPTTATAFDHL

The source made the active and inactive calls.

On to `CCCC(=O)NC(C)c1nc2ccccc2[nH]1` (stereo not drawn), for which the IC50 in assay [1] was > 47.1 µM (inactive). The EC50 in assay [2] is > 53 µM (inactive). In the case of `O=C(CN1C(=O)NC2(CCCc3ccccc32)C1=O)N1CCc2ccccc2C1` (stereo not drawn), the IC50 in assay [3] is 13.5 µM (active).

Take `Cc1cc(C)n(CCC(=O)N=Nc2c(O)[nH]c3ccc(Br)cc23)n1`: the IC50 in assay [1] is > 47.1 µM (inactive). For the same compound, the EC50 in assay [2] is > 53 µM (inactive). Consider `O=C(COc1cccc(Oc2ccccc2)c1)Nc1ccc(SC(F)F)cc1`, for which the EC50 in assay [4] is 14.4 µM (active); in [5] it was 17.5 µM (active); in assay [6], > 150 µM (not active). The IC50 was 4.12 µM (active) in [7] and 2.43 µM (active) in assay [8]. In the case of `CCOc1ccc(CCNC(=O)c2cccc(NC3=NC4CS(=O)(=O)CC4S3)c2)cc1OCC` (stereo not drawn), the IC50 in assay [1] was > 47.1 µM (inactive). Also, the EC50 in assay [2] was > 53 µM (inactive).

Turning to `COc1cc(OC)cc(C(=O)Nc2nc(CC(=O)NCc3ccccc3OC)cs2)c1`, the EC50 in assay [4], in assay [5] and in assay [6] was > 150 µM (not active) throughout. Consider `O=C(C[n+]1cccc2ccccc21)c1ccc(Br)cc1`, for which the IC50 in assay [3] is 13.2 µM (active).

On to `C=CCN=C(S)Nc1ccc(N(C)C)cc1`, for which the IC50 in [9] is 3.24 µM (active). As to `O=C(COc1ccccc1-c1ccccc1)NNC(=O)NC1CCCCC1`, the EC50 in assay [10], in [11] and in assay [12] was > 120 µM (not active) each time. In addition, the IC50 in assay [3] was 15.8 µM (active). As for `CSCC[C@H](NC(=O)c1nn(C)c(=O)c2ccccc12)c1nc2ccccc2[nH]1`, the EC50 in assay [4] is 1.06 µM (active); in [5] it was > 150 µM (not active); in [6], 19.8 µM (active). In addition, the AC50 is 17.8 µM (inconclusive) in [13] and 12.6 µM (inconclusive) in assay [14].

On to `O=C(Nc1cccc([N+](=O)[O-])c1)NC1CCCCCCC1`, for which the IC50 in assay [7] is 14.8 µM (active); in assay [8], 15.2 µM (active). In the case of `CC1CN(Cc2nc3c(c(=O)[nH]c(=O)n3C)n2CCCc2ccccc2)CC(C)O1` (stereo not drawn), the EC50 in assay [4], in assay [5] and in [6] was > 150 µM (not active) throughout. Regarding `COc1cc(N(C)C)c([N+](=O)[O-])cc1C(=O)NC(C)CNc1ccc([N+](=O)[O-])cc1Cl` (stereo not drawn), the IC50 in [7] is 6.26 µM (active); in [8], 5.79 µM (active). On the same counts, the results for `CSCC[C@H](NC(=O)c1ccc(Cl)c([N+](=O)[O-])c1)c1nc2ccccc2[nH]1` are 11.1 µM (active) and 6.14 µM (active).

In the case of `COc1cc(CNc2ccc(N3CCCCC3)cc2)ccc1OCC(=O)NC(C)(C)C`, the IC50 in assay [9] is 12.5 µM (active); in assay [3], 6.55 µM (active). On to `O=C1NC(=S)S/C1=C/c1ccc(N2CCOCC2)o1`, for which the IC50 in [9] was 18.4 µM (active). Take `Cc1cccc2c(CCNC(=O)c3ccc([N+](=O)[O-])cc3)c[nH]c12`: the IC50 in [1] was > 47.1 µM (inactive). Also, the EC50 in assay [2] is > 53 µM (inactive). On to `COc1ccc(N2CCN(C(=O)c3cc(C)oc3C)CC2)cc1`, for which the EC50 in assay [4], in assay [5] and in assay [6] was > 150 µM (not active) in each case. `CCOC(=O)c1ccc(NC(=O)CN2C(=O)CSC2=O)cc1`: the IC50 in [1] was > 47.1 µM (inactive). In assay [2], the EC50 is > 53 µM (inactive).

Consider `CCn1c(SCC(=O)Nc2ccc(N(C)C)cc2)nnc1C1CC1`, for which the IC50 in assay [9] is 9.49 µM (active). `CC1CCCCC1NC(=O)Cn1nnc(-c2ccc(Cl)cc2)n1` (stereo not drawn): the IC50 in [3] is 6.61 µM (active). With `CC(C)c1ccc(CSc2ccc(S(=O)(=O)N3CCOCC3)cn2)cc1`, the IC50 was 5.98 µM (active) in assay [7] and 7.91 µM (active) in [8].

For the compound `CCOc1cc(N2CCOCC2)c(OCC)cc1NC(=O)Cc1ccccc1`, the IC50 in assay [3] is 13.2 µM (active). On to `CCc1ccc(C(=O)COC(=O)c2cc([N+](=O)[O-])ccc2N2CCOCC2)cc1`, for which the IC50 was 1.75 µM (active) in assay [7] and 2.16 µM (active) in assay [8].

`CC(C)c1ccc(S(=O)(=O)N2CCC(C(=O)NCC3(N(C)C)CCCCC3)CC2)cc1`: in assay [3], the IC50 was 12.6 µM (active). On the same count and under the same terms, the result for `CC(=O)OCCOCn1cnn2c(=O)c(Br)c(C)nc12` reads 13.5 µM (active).

For the compound `C[C@@H]1CN([C@@H](C)CO)C(=O)Cc2cc(NC(=O)CCC(F)(F)F)ccc2O[C@H]1CN(C)Cc1ccc(-c2ccccc2)cc1`, the half-maximal activity concentration (AC50) in assay [15] was 8.61 µM (active).

With `Cc1ccc(S(=O)(=O)N(C)C[C@@H]2Oc3c(NC(=O)c4ccc(-c5nccs5)cc4)cccc3C(=O)N([C@@H](C)CO)C[C@@H]2C)cc1`, the AC50 in [15] was 18.3 µM (active). In the case of `CC(=NNc1cc(C)c2ccccc2n1)c1ccccn1`, the AC50 in [15] was 7.4 µM (active). In the case of `CC(C)C(=O)c1ccc(O)c(O)c1`, the IC50 in assay [9] is 30.9 µM (active).
